Results reported in PMC9220178, “Preclinical Characterization of Antioxidant Quinolyl Nitrone QN23 as a New Candidate for the Treatment of Ischemic Stroke” (Antioxidants, 2022).

How the values were obtained:
[1] = system: adult male Wistar rats, four-vessel occlusion (4VO) transient forebrain ischemia; experiment: Neurological deficit score (NDS) after global cerebral ischemia (4VO); assay type: in vivo, rat; conditions: R5d
Protocol: Transient forebrain ischemia was induced in adult male Wistar rats (10–12 weeks, Charles River, L’Arbresle, France) by the standard four-vessel occlusion (4VO) model previously described. Briefly, animals were anesthetized by intraperitoneal injection of a combination of ketamine, diazepam, and atropine (62.5, 5.0, and 0.25 mg/kg, respectively); positioned in a stereotactic device; and both vertebral arteries were cauterized. The next day, anesthesia was induced with 4% isoflurane and maintained at 2–2.5% isoflurane for carotid artery dissection. After anesthesia withdrawal, the carotid arteries were occluded with an atraumatic vascular clamp to induce brain ischemia. During the entire surgical procedure, temperature was monitored at 2 min intervals and kept at 37 °C. After 15 min of ischemia, the carotid arteries were unclamped for brain reperfusion. The animals were studied after 5 days of reperfusion (R5d), or after 11 weeks of reperfusion (long-term studies), and then they were euthanized under deep anesthesia. Animals from the sham control group were handled in the same way, but without occlusion of the carotid arteries. Ischemic animals were treated with vehicle solution (ethanol/polyethylene glycol 400/saline, 1:300:200 v/v), or with nitrones QN23 or NXY-059 in vehicle solution, as a single injection through the tail vein at the onset of reperfusion. For the therapeutic window experiments, the animals were also treated at reperfusion times 1, 3, and 6 h after ischemia. The treatments were prepared by an independent researcher and administered with concealed allocation. Treatments were administered in a randomized order obtained by a computer-based randomization program. […]
After 5 days of post-ischemic reperfusion (R5d), neurological deficits were evaluated in the animals by a researcher blind to the treatment allocation. General status and mobility impairments were quantified according to a scale previously validated in an entire cohort of R5d animals (n = 20). […]

[2] = Solubility studies for the injection vehicle; assay type: physicochemical; conditions: ethanol/saline, 1:9 v/v; highest concentrations (for doses up to 2.5 mg/kg)
Protocol: In the following section, we describe the effect of different doses of QN23 (1.0, 1.5, 2.0, and 2.5 mg/kg) administered intravenously (see Materials and Methods, Section 2.2). In order to explore this wider range of concentrations, solubility studies were carried out before the in vivo experiments in order to assess a proper pharmacological formulation. For the highest concentrations, QN23 was not soluble in our usual ethanolic vehicle (ethanol/saline, 1:9 v/v). After exploration of different formulations able to provide a safe injection method, we got the desired concentrations using a vehicle of ethanol, polyethylene glycol 400, and saline (1:300:200, v/v). Using this vehicle, animals were treated intravenously with QN23 concentrations of 1.0, 1.5, 2.0, and 2.5 mg/kg as a single injection at the onset of the reperfusion period after transient cerebral ischemia. After five days of recovery (R5d), neuronal death, apoptosis, and neurodeficit score were determined (Figure 1 and Figure 2).

[3] = system: experimental cerebral ischemia; set-up: method as in PMID 30715875; conditions: 1.5 mg/kg intraperitoneally; cited from earlier work

COc1ccc2nc(Cl)c(/C=[N+](\[O-])C(C)(C)C)cc2c1 [QN23, (Z)-N-tert-Butyl-1-(2-chloro-6-methoxyquinolin-3-yl)methanimine Oxide]
General status (neurological deficit score, NDS) compared with vehicle ([1]; 2.0 mg/kg i.v. at reperfusion onset): significant improvement | Therapeutic window: administration time after reperfusion onset with significantly reduced NDS ([1]; 2.0 mg/kg i.v., times tested 0, 1, 3, 6 h): up to 3 h | Solubility in ethanolic vehicle [2]: not soluble | Neuroprotective effect (neuronal death and neuronal apoptosis assays) [3]: significant neuroprotective effect
